{
  "source": "PubChem BioAssay (NCI)",
  "assay_in_all_cases": "growth of human tumour cells (NCI), 48 h",
  "key": {"NCI-H23 lung": {"tested_on": "NCI-H23 lung"}, "NCI-H460 lung": {"tested_on": "NCI-H460 lung"}, "NCI-H522 lung": {"tested_on": "NCI-H522 lung"}, "NCI/ADR-RES ovarian": {"tested_on": "NCI/ADR-RES ovarian"}, "OVCAR-3 ovarian": {"tested_on": "OVCAR-3 ovarian"}, "OVCAR-4 ovarian": {"tested_on": "OVCAR-4 ovarian"}, "OVCAR-5 ovarian": {"tested_on": "OVCAR-5 ovarian"}, "OVCAR-8 ovarian": {"tested_on": "OVCAR-8 ovarian"}, "PC-3 prostate": {"tested_on": "PC-3 prostate"}, "RPMI-8226 leukemia": {"tested_on": "RPMI-8226 leukemia"}, "RXF 393 renal": {"tested_on": "RXF 393 renal"}, "SF-268 CNS": {"tested_on": "SF-268 CNS"}, "SF-295 CNS": {"tested_on": "SF-295 CNS"}, "SF-539 CNS": {"tested_on": "SF-539 CNS"}, "SK-MEL-2 melanoma": {"tested_on": "SK-MEL-2 melanoma"}, "SK-MEL-28 melanoma": {"tested_on": "SK-MEL-28 melanoma"}, "SK-MEL-5 melanoma": {"tested_on": "SK-MEL-5 melanoma"}, "SK-OV-3 ovarian": {"tested_on": "SK-OV-3 ovarian"}, "SN12C renal": {"tested_on": "SN12C renal"}, "SNB-19 CNS": {"tested_on": "SNB-19 CNS"}, "SNB-75 CNS": {"tested_on": "SNB-75 CNS"}, "SR leukemia": {"tested_on": "SR leukemia"}, "SW-620 colon": {"tested_on": "SW-620 colon"}, "T-47D breast": {"tested_on": "T-47D breast"}, "TK-10 renal": {"tested_on": "TK-10 renal"}, "U251 CNS": {"tested_on": "U251 CNS"}, "UACC-257 melanoma": {"tested_on": "UACC-257 melanoma"}, "UACC-62 melanoma": {"tested_on": "UACC-62 melanoma"}, "UO-31 renal": {"tested_on": "UO-31 renal"}},
  "note": "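96-well plates; 48 h exposure; 5 concentrations. Endpoints by linear interpolation between flanking doses. Not reached: highest tested concentration assigned. The concentration for 50% growth inhibition is given as GI50. TGI is the concentration that stops growth completely.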",
  "data": [
    {"smiles": "N#CC(C#N)=C/C=C(\\Sc1ccc(Cl)cc1)c1ccc(F)cc1", "values": [
      {"measurement": "TGI", "setting": "NCI-H23 lung", "value": 2.05, "unit": "µM"},
      {"measurement": "GI50", "setting": "NCI-H460 lung", "value": 2.31, "unit": "µM"},
      {"measurement": "TGI", "setting": "NCI-H460 lung", "value": "> 100", "unit": "µM"},
      {"measurement": "GI50", "setting": "NCI-H522 lung", "value": 2.8, "unit": "µM"},
      {"measurement": "TGI", "setting": "NCI-H522 lung", "value": "> 47.6", "unit": "µM"},
      {"measurement": "GI50", "setting": "NCI/ADR-RES ovarian", "value": 0.948, "unit": "µM"},
      {"measurement": "TGI", "setting": "NCI/ADR-RES ovarian", "value": 4.94, "unit": "µM"},
      {"measurement": "GI50", "setting": "OVCAR-3 ovarian", "value": 0.31, "unit": "µM"},
      {"measurement": "TGI", "setting": "OVCAR-3 ovarian", "value": 2.6, "unit": "µM"},
      {"measurement": "GI50", "setting": "OVCAR-4 ovarian", "value": 19.5, "unit": "µM"},
      {"measurement": "TGI", "setting": "OVCAR-4 ovarian", "value": 60.3, "unit": "µM"},
      {"measurement": "GI50", "setting": "OVCAR-5 ovarian", "value": 1.37, "unit": "µM"},
      {"measurement": "TGI", "setting": "OVCAR-5 ovarian", "value": 15.3, "unit": "µM"},
      {"measurement": "GI50", "setting": "OVCAR-8 ovarian", "value": 5.89, "unit": "µM"},
      {"measurement": "TGI", "setting": "OVCAR-8 ovarian", "value": 12.7, "unit": "µM"},
      {"measurement": "GI50", "setting": "PC-3 prostate", "value": 0.496, "unit": "µM"},
      {"measurement": "TGI", "setting": "PC-3 prostate", "value": 6.19, "unit": "µM"},
      {"measurement": "GI50", "setting": "RPMI-8226 leukemia", "value": 0.0597, "unit": "µM"},
      {"measurement": "TGI", "setting": "RPMI-8226 leukemia", "value": 1.1, "unit": "µM"},
      {"measurement": "GI50", "setting": "RXF 393 renal", "value": 5.36, "unit": "µM"},
      {"measurement": "TGI", "setting": "RXF 393 renal", "value": "> 100", "unit": "µM"},
      {"measurement": "GI50", "setting": "SF-268 CNS", "value": 2.46, "unit": "µM"},
      {"measurement": "TGI", "setting": "SF-268 CNS", "value": 18.8, "unit": "µM"},
      {"measurement": "GI50", "setting": "SF-295 CNS", "value": 2.74, "unit": "µM"},
      {"measurement": "TGI", "setting": "SF-295 CNS", "value": 9.94, "unit": "µM"},
      {"measurement": "GI50", "setting": "SF-539 CNS", "value": 0.251, "unit": "µM"},
      {"measurement": "TGI", "setting": "SF-539 CNS", "value": 0.872, "unit": "µM"},
      {"measurement": "GI50", "setting": "SK-MEL-2 melanoma", "value": 4.15, "unit": "µM"},
      {"measurement": "TGI", "setting": "SK-MEL-2 melanoma", "value": "> 63.6", "unit": "µM"},
      {"measurement": "GI50", "setting": "SK-MEL-28 melanoma", "value": 6.61, "unit": "µM"},
      {"measurement": "TGI", "setting": "SK-MEL-28 melanoma", "value": 19.3, "unit": "µM"},
      {"measurement": "GI50", "setting": "SK-MEL-5 melanoma", "value": 1.76, "unit": "µM"},
      {"measurement": "TGI", "setting": "SK-MEL-5 melanoma", "value": 6.33, "unit": "µM"},
      {"measurement": "GI50", "setting": "SK-OV-3 ovarian", "value": 13.5, "unit": "µM"},
      {"measurement": "TGI", "setting": "SK-OV-3 ovarian", "value": 40.7, "unit": "µM"},
      {"measurement": "GI50", "setting": "SN12C renal", "value": 0.986, "unit": "µM"},
      {"measurement": "TGI", "setting": "SN12C renal", "value": 7.26, "unit": "µM"},
      {"measurement": "GI50", "setting": "SNB-19 CNS", "value": 5.67, "unit": "µM"},
      {"measurement": "TGI", "setting": "SNB-19 CNS", "value": 24.9, "unit": "µM"},
      {"measurement": "GI50", "setting": "SNB-75 CNS", "value": 16.6, "unit": "µM"},
      {"measurement": "TGI", "setting": "SNB-75 CNS", "value": 31.7, "unit": "µM"},
      {"measurement": "GI50", "setting": "SR leukemia", "value": 0.171, "unit": "µM"},
      {"measurement": "TGI", "setting": "SR leukemia", "value": "> 100", "unit": "µM"},
      {"measurement": "GI50", "setting": "SW-620 colon", "value": 0.0532, "unit": "µM"},
      {"measurement": "GI50", "setting": "T-47D breast", "value": 13.3, "unit": "µM"},
      {"measurement": "TGI", "setting": "T-47D breast", "value": "> 71.6", "unit": "µM"},
      {"measurement": "GI50", "setting": "TK-10 renal", "value": 0.857, "unit": "µM"},
      {"measurement": "TGI", "setting": "TK-10 renal", "value": 3.61, "unit": "µM"},
      {"measurement": "GI50", "setting": "U251 CNS", "value": 1.23, "unit": "µM"},
      {"measurement": "TGI", "setting": "U251 CNS", "value": "> 34.5", "unit": "µM"},
      {"measurement": "GI50", "setting": "UACC-257 melanoma", "value": 6.88, "unit": "µM"},
      {"measurement": "TGI", "setting": "UACC-257 melanoma", "value": 14.7, "unit": "µM"},
      {"measurement": "GI50", "setting": "UACC-62 melanoma", "value": 2.03, "unit": "µM"},
      {"measurement": "TGI", "setting": "UACC-62 melanoma", "value": 10.3, "unit": "µM"},
      {"measurement": "GI50", "setting": "UO-31 renal", "value": 1.85, "unit": "µM"},
      {"measurement": "TGI", "setting": "UO-31 renal", "value": "> 40.3", "unit": "µM"}
    ]}
  ]
}
